One data set concerns BT474 (breast). In words: Cell proliferation assay (ATPlite), BT474. Type of data set: cell-based. The following applies: read-out: Growth inhibition (IC50).
For another data set, the system named is MDA231 (breast). In words: Cell proliferation assay (ATPlite), MDA231. In kind it is cell-based. The conditions noted are these: 4 days, read-out: Growth inhibition (IC50).
The test system of another data set is MDA-MB468 (breast). In words: Cell proliferation assay (ATPlite), MDA-MB468. Type of data set: cell-based. The conditions noted are these: for IC50: read-out: Growth inhibition (IC50). (In general: In ATP-based viability assays light output follows the ATP content of the culture.)
The test system of a further data set is N87 (gastric). As to the kind of experiment: Cell proliferation assay (ATPlite), N87. Type of data set: cell-based. The conditions noted are these: read-out: Growth inhibition (IC50).
The test system of a further data set is K562 (leukemia). In words: Cell proliferation assay (ATPlite), K562. In kind it is cell-based. The conditions noted are these: 4 days, read-out: Growth inhibition (IC50).
The next data set concerns MV4;11 (leukemia). As to the kind of experiment: Cell proliferation assay (ATPlite), MV4;11. Type of data set: cell-based. The conditions noted are these: 4 days, read-out: Growth inhibition (IC50).
Another data set has as its system HCT116 (colon). In words: Cell proliferation assay (ATPlite), HCT116. In kind it is cell-based. The conditions noted are these: 4 days, read-out: Growth inhibition (IC50).
In the next data set the test system is HCC827 (lung). In words: Cell proliferation assay (ATPlite), HCC827. In kind it is cell-based. The following applies: 4 days, read-out: Growth inhibition (IC50). As for the experimental part: (§1) Cell proliferation assays were performed in various oncology cell lines, including breast cancer (BT474 and MDA-MB468), leukemia (K562 CML and MV4;11 AML), colon (HCT116), prostate cancer (PC-3), Tarceva- and Iressa-resistant non-small cell lung cancer (NSCLC, […] and H1975), gastric cancer (N87) as well as glioblastoma (A172) cell lines. […] Cell viability at day 4 was measured by the amount of ATP present in viable cells using ATPlite assay kit according to manufacturer's protocol (Perkin Elmer, Boston, Mass.). IC50 was calculated by fitting the data using XLfit software.

The next data set concerns H1975 (lung). In words: Cell proliferation assay (ATPlite), H1975. Type of data set: cell-based. The conditions noted are these: 4 days, read-out: Growth inhibition (IC50). As for the experimental part:
as §1

A further data set deals with A172(glioblastoma). As to the kind of experiment: Cell proliferation assay (ATPlite), A172. In kind it is cell-based. The conditions noted are these: 4 days, read-out: Growth inhibition (IC50). As for the experimental part:
as §1

The target in a further data set is HSP90α (Homo sapiens, UniProt P07900). In words: HSP90α affinity. Type of data set: binding.
A short description of data set [1]: In vitro conversion/stability of prodrug in plasma. Type of data set: in vitro ADME. The conditions noted are these: mouse plasma; at 60 minutes. As for the experimental part: (§2) Hydrolysis of prodrug in vivo was estimated by incubating phosphate prodrugs in vitro with mouse small intestine and liver homogenates, mouse plasma, and artificial gastric fluid. Plasma was freshly collected from nude mice. Liver and intestine homogenates were prepared by adding 3 volume of saline to freshly collected mouse tissues and homogenized using glass homogenizer. Gastric fluid was prepared by adding 80 mL of 1M hydrochloric acid to 800 mL of water and then supplementing with 2.0 g of sodium chloride and 3.2 g of pepsin powder. The final volume of the artificial gastric fluid was adjusted with water to 1000 mL (pH=1.1). […] 100 μL samples were collected at 0, 2, 5, 15, 30 and 60 minutes. 5 volumes methanol containing internal standard was added immediately. For samples from gastric fluid incubation, 1 volume of 0.01 M Sodium hydroxide was added before injection into LC/MS/MS. All samples were analyzed by LC/MS/MS to quantitate the concentration of 1a, 1b and the corresponding parent drugs. The concentration of the parent drugs of 1a and 1b was quantitated using standard curve prepared using each vehicle.
(§3) We then evaluate other prodrug conversion in vitro using tissue homogenates and a mimic of gastric fluid (pepsin solution at pH 1.1).

A short description of data set [2]: In vitro conversion/stability of prodrug in artificial gastric fluid (pepsin solution, pH 1.1). Type of data set: in vitro ADME. The conditions noted are these: artificial gastric fluid pH 1.1; at 60 minutes. As for the experimental part: as §2, §3
Data set [3] in a line: In vitro partition between plasma and cells in mouse whole blood. Type of data set: in vitro ADME. The following applies: for Test article concentration in cellular elements / Test article concentration in plasma: mouse whole blood spiked at 5 μg/mL, 37° C.; for Partition of the test articles between plasma and cells: mouse whole blood, 5 μg/mL. On the procedure: The whole blood was withdrawn from mice via cardio-puncture and placed in EDTA anticoagulant tubes. The test articles were spiked to whole blood at final concentration of 5 μg/mL (at least 2 mL) and incubated at 37° C. 200 μL whole blood was taken at 0 (immediate after incubation), 5 min, 15 min and 30 min and then was centrifuged to separate plasma and cellular elements. Plasma was transferred to clean tubes. 50 μL of plasma and cellular elements were processed by addition of 3 volumes (150 μl) of ice-cold methanol. After centrifugation, the supernatants were subjected to LC-MS/MS analysis of test articles in both plasma and cellular elements.

Data set [4] can be described thus: Solubility of phosphate prodrugs in organic- and aqueous-based media. In kind it is physicochemical. The conditions noted are these: for solubility: read-out: Maximum observed solubility. As for the experimental part:
Crystalline phosphate drugs 1a and 1b were tested first in several different organic- and aqueous-based media, including water, PBS, ETOH, DMA, CMC, and PG.
The maximum observed solubilities with small lots of crystalline drug in 4-mL glass clear tubes were: […]

Data set [5] in a line: Solubility for oral formulation of PU24FCl. In kind it is physicochemical. The following applies: in our hands. The source says:
More recently, other novel non-natural product Hsp90 inhibitors have been reported (e.g. PU3 and CCT018159; see Chiosis et. al. Bioorg. Med. Chem. Lett. 2002, 10, 3555-3564; Vilenchik et. al. Chem. Biol. 2004, 11, 787-797; Chiosis et. al. WO 0236075, 2002; Drysdale et. al. WO 03/055860 A1, 2003; Wright et. al. Chem. Biol. 2004, 11, 775-785; Dymock et. al. Bioorg. Med. Chem. Lett. 2004, 14, 325-328; Dymock et. al. J. Med. Chem. 2005, 48, 4212-4215. Structure of Hsp90 in complex with PU3 pdb code 1UY6, and with PU24FCl: pdb code 1UYF and Clevenger et. al. Org. Lett. 2004, 6, 4459-4462). […] The 8-benzyladenines such as PU3 were designed to adopt the same C-shaped conformation as geldanamycin (Chiosis et. al. Current Cancer Drug Targets, 2003, 3, 371-376) with the adenine ring pointing to the adenine-binding site (hinge region), and the trimethoxybenzene ring emulating the H-bond accepting nature of the quinone ring of geldanamycin. […]

In another data set the test system is MCF-7 xenograft tumors. The conditions noted are these: mice bearing MCF-7 xenograft tumors; intraperitoneally, 200 mg/kg; DMSO/EtOH/phosphate-buffered saline 1:1:1; cited from earlier work.
Where [6] appears, read: BT474 (breast), 4 days, cell viability by ATPlite.
Setting [7] is: MDA-MB468 (breast), 4 days, ATPlite.

Converted amounts (≈) assume the structure as drawn. Read-outs that look alike come from different tables or passages of the source. A value given as a limit tells only on which side of the number the result lay.

In the case of `O=C1OCC/C=C/CC/C=C/C(=N\OCC(=O)N2CCCCC2)Cc2c(Cl)c(O)cc(O)c21` [1a parent], the IC50 (in general, the point on the concentration scale where inhibition reaches its midpoint) amounted to 7 nM with BT474 (breast) (setting [6]); 7 nM in the data set with MDA231 (breast); 9 nM with MDA-MB468 (breast) (setting [7]); 4 nM with N87 (gastric) (N87 (gastric), 4 days, ATPlite); 6 nM in the data set with K562 (leukemia); 3 nM with MV4;11 (leukemia). For the same compound, the IC50 is 9 nM with HCT116 (colon), 31 nM in the data set on HCC827 (lung), 25 nM in the data set on H1975 (lung) and 42 nM in the data set on A172(glioblastoma). This compound had an HSP90α affinity on HSP90α of 21 nM.

As for `O=C1OCC/C=C/CC/C=C/C(=N\OCC(=O)N2CCCCC2)Cc2cc(O)cc(O)c21` [1b parent], the concentration for half-maximal inhibition (IC50) in the data set with BT474 (breast) (setting [6]) was determined as 2 nM; with MDA231 (breast) it was 2 nM; with MDA-MB468 (breast) (setting [7]), 2 nM; in the data set with N87 (gastric) (N87 (gastric), 4 days, ATPlite), 1 nM; with K562 (leukemia) it was 4 nM; with MV4;11 (leukemia), 2 nM. Further, the IC50 in the data set with HCT116 (colon) was found to be 11 nM. The compound further returned an HSP90α affinity on HSP90α of 15 nM.

Consider `O=C1OCC/C=C/CC/C=C/C(=N\OCC(=O)N2CCCCC2)Cc2c(Cl)c(OP(=O)(O)O)cc(O)c21` [Compound 1a], for which, in data set [1], the “Prodrug intact in plasma” value is recorded as “about 90%”. In addition, the “Prodrug intact in artificial gastric fluid” value in data set [2] is “about 70%”. For the same compound, the “Test article concentration in cellular elements” value in data set [3] (0 min) stood at 1893.93 ng/mL; in data set [3] (5 min), 1632.69 ng/mL; in data set [3] (15 min), 1655.20 ng/mL; in data set [3] (30 min) it was 1956.15 ng/mL. Further, the “Test article concentration in plasma” value in data set [3] (0 min) worked out at 7988.91 ng/mL; in data set [3] (5 min), 7654.94 ng/mL; in [3] (15 min) it was 8123.27 ng/mL; in [3] (30 min), 9680.38 ng/mL. Further, the “Partition of the test articles between plasma and cells” value in data set [3] is “The concentration of 1a and 1b in plasma is larger than the nominated concentration in whole blood (5 μg/mL), which indicated that the partition of the test articles was mainly in plasma”. The solubility (usually the dissolved amount per volume that the medium holds) in data set [4] (0.5% CMC/0.1% Tween-20/0.45% NaCl) was determined as 87.5 mg/mL (≈ 157 mM); in [4] (PBS), 55 mg/mL (≈ 98.8 mM). Moreover, the “Solubility in water and PBS compared to the parent drugs” value in [4] is “very soluble”.

As to `O=C1OCC/C=C/CC/C=C/C(=N\OCC(=O)N2CCCCC2)Cc2cc(OP(=O)(O)O)cc(O)c21` [Compound 1b], the IC50 with BT474 (breast) (Homo sapiens, BT-474, 96 h) was 14 nM; in the data set on MDA-MB468 (breast) (Homo sapiens, MDA-MB-468, 96 h), 37 nM; in the data set with N87 (gastric) (96 h), 19 nM. In addition, the “Binding to Hsp90 in vitro” value at HSP90α was “does not bind”. Besides, the HSP90α affinity at HSP90α is recorded as >10 000 nM. Besides, the “Prodrug intact in plasma” value in data set [1] is on record as “about 90%”. In addition, the “Prodrug intact in artificial gastric fluid” value in [2] was “about 70%”. For the same compound, the “Test article concentration in cellular elements” value in data set [3] (0 min) amounted to 1999.60 ng/mL; in [3] (5 min), 1364.01 ng/mL; in data set [3] (15 min), 1070.97 ng/mL; in data set [3] (30 min), 1237.82 ng/mL. Besides, the “Test article concentration in plasma” value in data set [3] (0 min) is on record as 7119.50 ng/mL; in data set [3] (5 min), 7833.27 ng/mL; in [3] (15 min), 7672.71 ng/mL; in data set [3] (30 min), 7409.47 ng/mL. The “Partition of the test articles between plasma and cells” value in [3] was “The concentration of 1a and 1b in plasma is larger than the nominated concentration in whole blood (5 μg/mL), which indicated that the partition of the test articles was mainly in plasma”. For the same compound, in [4], the “Solubility in water and PBS compared to the parent drugs” value is listed as “very soluble”.

Consider `C=CCNC1=C2C[C@@H](C)C[C@H](OC)[C@H](O)[C@@H](C)/C=C(\C)[C@H](OC(N)=O)[C@@H](OC)/C=C\C=C(/C)C(=O)NC(=CC1=O)C2=O` [Compound 17AAG, 17-allylamino-17-demethoxygeldanamycin, reference compound], for which the IC50 in the data set on BT474 (breast) (setting [6]) is 5 nM; in the data set on MDA-MB468 (breast) (setting [7]), 780 nM; in the data set with N87 (gastric) (N87 (gastric), 4 days, ATPlite), 1 nM; with K562 (leukemia) it was 48 nM; in the data set on MV4;11 (leukemia) it was 11 nM; with HCC827 (lung), 56 nM. The concentration for half-maximal inhibition (IC50) with H1975 (lung) was determined as 35 nM. Besides, the “Anti-proliferative activity against MDA-MB468” value in the data set on MDA-MB468 (breast) (MDA-MB468) is “significantly less sensitive”.

Consider `C#CCCCn1c(Cc2cc(OC)c(OC)c(OC)c2Cl)nc2c(N)nc(F)nc21` [PU24FCl], for which, in [5], the “Solubility for oral formulation and delivery” value is recorded as “too insoluble”. Further, the “Tumor growth” value in the data set with MCF-7 xenograft tumors is listed as “significantly repressed tumor growth”.

These data come from patent US20110190237A1, “Macrocyclic Prodrug Compounds Useful as Therapeutics” (NEXGENIX PHARMACEUTICALS, priority 2008, published 2011).
